Counter-ions that a name gives are not always drawn.
How the values were obtained:
Type in all cases: physicochemical
[1] = Storage stability of Formulations 5, 6 and 7, related substances by HPLC
Procedure: An aliquot of each of Formulation 5, 6, and 7 was subjected to stability testing. In particular, an amount of each formulation sufficient to provide 11.4 mg of Compound 1 was transferred to a glass vial bottle and then the bottle was capped. The glass vials were stored at (a) 40° C./NMT 25% relative humidity or (b) 40° C./75% relative humidity. Samples were analyzed by HPLC to determine the amount of related substances in the formulation.
(§1) Table 2 presents results for samples stored at 40° C./25% relative humidity. Table 3 presents results for samples stored at 40° C./75% relative humidity.

[2] = Storage stability of Formulations 1 to 4, related substances by HPLC; settings: 40° C./75% relative humidity, capped glass vials
Procedure: An aliquot of each of Formulation 1, 2, 3, and 4 was subjected to stability testing. In particular, an amount of each formulation sufficient to provide 11.4 mg of Compound 1 was transferred to glass vials and then the vials were capped. The glass vials were stored at 40° C./75% relative humidity for three to six weeks. Samples were analyzed by HPLC to determine the amount of related substances in the formulation.

[3] = Storage stability of Formulations 8, 9 and 10, related substances
Procedure: An aliquot of each of Formulation 8, 9, and 10 was subjected to stability testing. In particular, an amount of each formulation sufficient to provide 14.3 mg of Compound 2 was transferred to a glass vial and then the vial was capped. The glass vials were stored at (a) 40° C./NMT 25% relative humidity or (b) 40° C./75% relative humidity. Samples were analyzed to determine the amount of related substances in the formulation.
as §1

[4] = 40° C./25% (NMT 25%) relative humidity

| Structure (SMILES) | Percentage of Related Substances in the Formulation (% as determined by HPLC), 2 Weeks Storage [1, 4] | Percentage of Related Substances in the Formulation (% as determined by HPLC), 4 Weeks Storage ([1]; 40° C./25% (NMT 25%) relative humidity, 4 weeks) | Percentage of Related Substances in the Formulation (% as determined by HPLC), 2 Weeks Storage ([1]; 40° C./75% relative humidity) | Percentage of Related Substances in the Formulation (% as determined by HPLC), 6 Weeks Storage ([1]; 40° C./75% relative humidity, 6 weeks) | Percentage of Related Substances in the Formulation (% as Determined by HPLC), 3 Weeks Storage ([2]; 3 weeks) | Percentage of Related Substances in the Formulation (% as determined by HPLC), 6 Weeks Storage ([2]; 6 weeks) | Percentage of Related Substances in the Formulation (% as determined by HPLC), 2 Weeks Storage [3, 4] | Percentage of Related Substances in the Formulation (% as determined by HPLC), 4 Weeks Storage [3, 4] | Percentage of Related Substances in the Formulation (% as determined by HPLC), 6 Weeks Storage [3, 4] | Percentage of Related Substances in the Formulation (% as determined by HPLC), 2 Weeks Storage ([3]; 40° C./75% relative humidity) | Percentage of Related Substances in the Formulation (% as determined by HPLC), 4 Weeks Storage ([3]; 40° C./75% relative humidity) | Percentage of Related Substances in the Formulation (% as determined by HPLC), 6 Weeks Storage ([3]; 40° C./75% relative humidity) |
| --- | --- | --- | --- | --- | --- | --- | --- | --- | --- | --- | --- | --- |
| COc1cc(F)c(-c2cc(Cn3cnc4c(N)ncnc43)c(N3CCC[C@](N)([C@H](O)C(F)F)C3)cn2)cc1F [Compound 1, (S)-1-((R)-3-amino-1-(4-((6-amino-9H-purin-9-yl)methyl)-6-(2,5-difluoro-4-methoxyphenyl)pyridin-3-yl)piperidin-3-yl)-2,2-difluoroethan-1-ol D-Tartrate] | 0.56% | 0.57% | 0.57% | 0.57% | 0.42% | 0.41% |  |  |  |  |  |  |
| COc1cc(F)c(-c2cc(Cn3cnc4c(N)ncnc43)c(N3CCC[C@](N)([C@H](O)C(F)F)C3)cn2)cc1F [Compound 2, (S)-1-((R)-3-amino-1-(4-((6-amino-9H-purin-9-yl)methyl)-6-(2,5-difluoro-4-methoxyphenyl)pyridin-3-yl)piperidin-3-yl)-2,2-difluoroethan-1-ol Fumarate] |  |  |  |  |  |  | 0.55% | 0.55% | 0.56% | 0.55% | 0.56% | 0.55% |

— patent US20240207192A1, “PHARMACEUTICAL COMPOSITIONS CONTAINING A PIPERIDINYL-METHYL-PURINE AMINE AND THEIR USE IN TREATING DISEASES AND CONDITIONS” (K36 THERAPEUTICS, INC., priority 2022, published 2024)
